The results in this text go back to patent publication US20260097111A1, “ETHER LIPIDS FOR HYPERACTIVATION OF MAMMALIAN DENDRITIC CELLS” (priority 2022, published 2026).

Assay [1] deals with human moDCs and autologous memory CD4+ T cells. The assay is described as follows: moDC and memory CD4+ T cell coculture, cytokine secretion and viability. The assay is classed as cell-based. Particulars: for IL-1β: MCC950 10 μM or anti-IL-1β 10 μg/mL added to R848+DGP where named, FIG. 36A. How it is done: Monocyte Isolation, Storage, and Differentiation into moDC.
Memory CD4+ T Cell Isolation. The CD14− fraction of the leukapheresis product was collected and used for further isolation of memory CD4+ T cells. First, approximately 5×10^9 total nucleated cells or less of the blood product were pelleted at 200×g for 10 min. The cells were resuspended in two 50 mL conical tubes each containing 25 mL in volume. Cells were then incubated with microbeads targeting red blood cells and granulocytes at 4° C. for 15 min. Cells were loaded on equilibrated MultiMACS columns using the “Deplete” program. Columns were washed twice with separation buffer and the flow-through of peripheral blood mononuclear cells (PBMCs) were collected and counted. The Memory CD4+ T Cell Isolation Kit from Miltenyi was then used to isolate memory CD4+ T cells from the PBMCs. After following the manufacturer's protocol for antibody and microbead incubations, cells were loaded onto equilibrated MultiMACS columns using the “Deplete” program. After 2 column washes using separation buffer, the negative fraction was collected and counted. An aliquot was stained to confirm the purity of the memory CD4 T cell population. […] Vials were placed in CoolCell freezing containers and placed in a −80° C. freezer for no longer than 1 week. Frozen cells were transferred for long-term storage to the vapor phase of a liquid nitrogen freezer until use.
Treatments of Cells For Analysis of Cytokine Secretion. Human moDCs were plated at 5×10^4 cells/well in 96-well U-bottom tissue culture plates in R10++ media by adding 50 μL of cells per well. To each well, 50 μL of memory CD4 T cells at 2.5×10^6 cells/mL was added. For control conditions where only moDC or only CD4 T cells were plated, the missing cells were replaced with an equivalent volume of R10++ media.
Lyophilized R848 stocks were prepared as described above and frozen at −80° C. for storage. An aliquot of frozen R848 was thawed and further diluted to 22.8 μM in R10++ (8 μg/mL R848). A portion of diluted R848 was combined with MCC950 to reach a concentration of 80 μM MCC950. Another portion of diluted R848 was combined with anti-IL-1β blocking antibody to reach a concentration of 80 μg/mL anti-IL-1β. Cell cultures received 25 μL of these mixes depending on desired treatment. For wells not receiving R848 treatment, an equivalent volume of R10++ media was added to wells. For these three chemicals, final concentrations in the wells were 2.85 μM R848, 10 μM MCC950, and 10 μg/mL anti-IL-1β.
A4.44% solution of KP407 dissolved in sterile, distilled water was prepared at a temperature of 4° C. DGP from powder was prepared by adding KP407 solution to lipid. […] Sterile 10×PBS was added to the solution resulting in a 1×PBS concentration. […]

In assay [2] the test system is myeloid cells in dLN and spleen. Description: Myeloid cells in dLN and spleen after SC injection (flow cytometry). The assay is classed as in vivo, mice. The source says: dLN Dissection and Dissociation. […] The dLN were then transported on ice to Corner Therapeutics labs. The dLN was then processed using a Miltenyi spleen dissociation kit according to manufacturer's protocol. In brief, the dLN from each mouse was transferred into the gentleMACS C Tube containing the enzyme mix. The dLN were then dissociated using the gentleMACS Program 37C_m_SDK_1. Cell suspensions were then collected and filtered through a 30 μm Pre-Separation Filter. Cells were counted using the Moxi automated counter, then resuspended in 400 ul of FACS buffer for cell staining.
Spleen Dissection and Dissociation. […] The spleen samples were then transported on ice to Corner Therapeutics labs. Spleen samples were then processed a Miltenyi spleen dissociation kit according to manufacturer's protocol. In brief, each spleen was transferred into the gentleMACS C Tube containing the enzyme mix. The spleens were then dissociated using the gentleMACS program 37C_m_SDK_1. ACK lysis was performed for 2 min. Cell suspensions were then collected and filtered through a 30 μm Pre-Separation Filter. Cells were counted using the Moxi automated counter, then resuspended in 400 ul of FACS buffer for cell staining.
Flow Cytometry. Single cell suspension from the draining lymph or spleen were resuspended in 100 μL PBS containing Live/Dead Violet (1:1000) and incubated for 20 min at 4° C. Cells were then washed and resuspend in 100 μL FACS buffer containing Fc block (1:100) for 10 min. For myeloid cell staining, cells were then resuspended in 100 μL of antibodies detailed in Table 13-1 to identify monocytes as CD11b^+ Ly6C^+F4/80^neg MHC^neglive cells, moDCs as CD11b^+ Ly6C^+F4/80^neg MHC^+ live cells, macrophages as F4/80^+ MHC^+CD24^neg live cells, and DCs as CD11c^+MHC-II^+ F4/80^neg live cells. Counter Bright counting beads were added before the acquisition of samples.
In general terms: In flow cytometry, cells or beads pass a laser one at a time.

Structures are written as SMILES.

Consider `CC(C)(O)c1coc(S(=O)(=O)NC(=O)Nc2c3c(cc4c2CCC4)CCC3)c1` [MCC950, reference compound], for which, in assay [1] (coculture with anti-CD3, 2 days, MCC950 or anti-IL-1β added to R848+DGP where named, FIG. 37A), the IFNγ result was “IFNγ production was significantly reduced”. Further, the IL-1β result in assay [1] (coculture, 2 days) is “IL-1β was significantly reduced”.

For the compound `CCCCCCCCCCCCCCCCCCCCCCOC[C@@H](O)COP(=O)(O)O` [Compound 2, 1-docosyl-sn-glycerol-3-phosphate], the “absolute number of monocytes in the dLN” value in assay [2] (4 hours post SC injection vs PBS, FIG. 50A) is given as “did not induce an increase in the absolute number of cells in the dLN at 4 hours”. Further, in assay [2] (4 hours post SC injection vs PBS, FIG. 50B), the “absolute number of moDCs in the dLN” value was “did not induce an increase in the absolute number of moDCs in the dLN”. Also, the “CD69 MFI on myeloid cells in the dLN” value in assay [2] (4 hours post SC injection vs PBS, FIG. 52A-D) was “did not induce CD69 upregulation on myeloid cells in the dLN”. In addition, the “CD69 MFI on myeloid cells in the spleen” value in assay [2] (4 hours post SC injection vs PBS, FIG. 53A-D) is listed as “did not induce the upregulation of CD69 on myeloid cells in the spleen”. In addition, the “CCR7 MFI on DCs in the dLN and spleen” value in assay [2] (4 hours post SC injection, FIG. 54A-B) is “did not induce the upregulation of CCR7”. Also, the “monocytes in the spleen” value in assay [2] (48 hours post SC injection vs PBS, FIG. 51A) is given as “decreased the levels of monocytes in the spleen”. Also, the “abundance of macrophages and cDCs in the dLN” value in assay [2] (48 hours post SC injection, FIG. 50C-D) is on record as “did not increase”. Moreover, the “production of IL-4, IL5, and IL-13” value in assay [1] (coculture, 2 days, FIG. 38A-C) was “not elevated compared to unstimulated conditions”. In addition, the IL-1β result in assay [1] (coculture, 2 days) was “minimal IL-1β was detected”.
